Here are results for 3 molecules from patent US6635637B2, “Cyclic oxyguanidine protease inhibitors” (Dimensional Pharmaceuticals, Inc., priority 2000, dated 2003).

Where a name gives a salt, the structure may show the parent alone.

The target of the assay is T1, human α-thrombin (Homo sapiens, UniProt P00734).
T1 construct: Purified human α-thrombin; purchased Enzyme Research Laboratories (South Bend, Ind.)
The assay is described as follows: In vitro inhibition of purified thrombin (p-nitroanilide substrate hydrolysis, Ki determination). The assay is classed as biochemical. Conditions: purified human α-thrombin 0.5 nM; substrate N-succinyl-Ala-Ala-Pro-Arg-p-nitroanilide 32 μM; 37° C.; pH 7.5. An excerpt: Reagents: All buffer salts were obtained from Sigma Chemical Company (St. Louis, Mo.), and were of the highest purity available. The enzyme substrates, N—N-benzoyl-Phe-Val-Arg-p-nitroanilide (Sigma B7632), N-benzoyl-Ile-Glu-Gly-Arg-p-nitroanilide hydrochloride (Sigma B2291), N-p-Tosyl-Gly-Pro-Lys-p-nitroanilide (Sigma T6140), N-succinyl-Ala-Ala-Pro-Phe-p-nitroanilide (Sigma S7388) and N-CBZ-Val-Gly-Arg-p-nitroanilide (Sigma C7271) were obtained from Sigma. N-succinyl-Ala-Ala-Pro-Arg-p-nitroanilide (BACHEM L-1720) and N-succinyl-Ala-Ala-Pro-Val-p-nitroanilide (BACHEM L-1770) were obtained from BACHEM (King of Prussia, Pa.).
Human α-thrombin, human factor Xa and human plasmin were obtained from Enzyme Research Laboratories (South Bend, Ind.). Bovine α-chymotrypsin (Sigma C4129), bovine trypsin (Sigma T8642) and human kidney cell urokinase (Sigma U5004) were obtained from Sigma. Human leukocyte elastase was obtained from Elastin Products (Pacific, Mo.).
Ki Determinations: All assays are based on the ability of the test compound to inhibit the enzyme catalyzed hydrolysis of a peptide p-nitroanilide substrate. […] In general, substrate concentrations are lower than the experimentally determined value for Km. […]
In a typical Ki determination, into each well of a 96 well plate is pipetted 280 μL of substrate solution, 10 μL of test compound solution, and the plate allowed to thermally equilibrate at 37° C. in a Molecular Devices plate reader for >15 minutes. Reactions were initiated by the addition of a 10 μL aliquot of enzyme and the absorbance increase at 405 nm is recorded for 15 minutes. […] The ratio of the velocity (rate of change in absorbance as a function of time) for a sample containing no test compound is divided by the velocity of a sample containing test compound, and is plotted as a function of test compound concentration. The data are fit to a linear regression, and the value of the slope of the line calculated. The inverse of the slope is the experimentally determined Ki value. […]

As for `Cc1cc(OCC2CCN(C(=N)N)OC2)cc(OS(=O)(=O)c2ccccc2S(C)(=O)=O)c1` (stereo not drawn) [Example 1, 3-[(2-Amidino(1,2-oxazaperhydroin-5-yl))methoxy]-5-methylphenyl 2-(methylsulfonyl)benzenesulfonate Trifluoroacetate], the Ki (in general, a dissociation constant, usually derived from enzyme kinetics or from competition with a known ligand) worked out at 7 nM. The figure for `CS(=O)(=O)c1ccccc1S(=O)(=O)Oc1cc(Cl)cc(OCC2CCN(C(=N)N)OC2)c1` (stereo not drawn) [Example 2, 3-[(2-Amidino(1,2-oxazaperhydroin-5-yl))methoxy]-5-chlorophenyl 2-(methylsulfonyl)benzenesulfonate trifluoroacetate] is 13 nM; for `C=CCN(C(=O)c1cc(Cl)cc(OCC2CCN(C(=N)N)OC2)c1)C1CCCC1` (stereo not drawn) [Example 3, 5-{[5-Chloro-3-(N-cyclopentyl-N-prop-2-enylcarbamoyl)phenoxy]methyl}-1,2-oxazaperhydroine-2-carboxamidine trifluoroacetate] it is 8 nM.
